Where two headings read alike, the source gives them in different places.
How the values were obtained:
[1] = biological target: T1, lipoxygenase from rabbit reticulocytes (Oryctolagus cuniculus, UniProt P12530); assay: Inhibition of the activity of lipoxygenase from rabbit reticulocytes (oxygen consumption, Clark electrode); type: biochemical; settings: for IC84: read-out: I84
T1 construct: The lipoxygenase from rabbit reticulocytes is obtained in electrophoretically and immunologically pure form; from tissue; host or cells: rabbit reticulocytes
T1 sequence (P12530 1-663): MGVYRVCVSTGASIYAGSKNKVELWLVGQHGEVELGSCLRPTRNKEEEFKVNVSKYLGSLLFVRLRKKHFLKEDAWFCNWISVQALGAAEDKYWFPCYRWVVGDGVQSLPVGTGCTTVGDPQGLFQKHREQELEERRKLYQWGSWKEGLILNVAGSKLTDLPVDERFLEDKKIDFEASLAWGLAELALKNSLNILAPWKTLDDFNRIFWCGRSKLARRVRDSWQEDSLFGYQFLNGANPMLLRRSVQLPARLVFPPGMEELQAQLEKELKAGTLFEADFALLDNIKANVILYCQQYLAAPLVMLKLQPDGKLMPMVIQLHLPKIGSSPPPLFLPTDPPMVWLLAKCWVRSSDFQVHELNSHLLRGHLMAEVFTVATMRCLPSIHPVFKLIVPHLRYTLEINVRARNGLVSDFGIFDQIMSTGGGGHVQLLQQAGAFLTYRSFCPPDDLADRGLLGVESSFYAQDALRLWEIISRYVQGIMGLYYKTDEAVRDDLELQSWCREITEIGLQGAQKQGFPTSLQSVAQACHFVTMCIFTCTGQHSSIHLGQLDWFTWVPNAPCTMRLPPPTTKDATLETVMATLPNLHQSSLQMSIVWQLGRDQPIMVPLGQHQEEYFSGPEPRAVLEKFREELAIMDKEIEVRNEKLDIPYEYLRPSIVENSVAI
Procedure: The lipoxygenase from rabbit reticulocytes was obtained in electrophoretically and immunologically pure form according to a technique known from the literature (S. M. Rapoport et al. Methods in Enzymology 71, 430 (1981)). The determination of lipoxygenase activity follows at 25° C. through the polarographic measurement of the oxygen consumption by means of Clark Electrode in a standardized system.
Through variation of the substance concentrations, the titration curves of the inhibition and therefrom the inhibition concentrations (I-value) of the compounds can be determined.
The testing of compounds for antiasthmatic, antiallergenic, inflammation-inhibiting and antithrombotic activity on the basis on the inhibition of the lipoxygenase reaction of the arachidonic acid cascade follows in a molecular/pharmacological test system. […] The lipoxygenase from rabbit reticulocytes is obtained in electrophoretically and immunologically pure form according to the techniques described in the literature (supra). The determination of the lipoxygenase activity follows at 25° C. through the polorographic measurement of oxygen consumption by means of a Clark-electrode in the following system: 0.1M potassiumphosphate, pH 7.4, with 0.2 percent sodium cholate and 0.53 mM linoleic acid. The enzyme concentration in the measurement preparation came to 25 nM. The compounds to be tested are dissolved in methylglycol (freshly distilled in a vacuum) and pre-incubated for 15 minutes at the measuring temperature in the absence of sodium cholate and linoleic acid. […] The enzyme reaction is started by the addition of sodium cholate and linoleic acid.

[2] = tested on: guinea pig lung strips; assay: Arachidonic acid-induced spasm of isolated guinea pig lung strips; settings: active substance 100 μM
Excerpt: They display in animal experimental tests on isolated lung strips from guinea pigs a pronounced antiasthmatic effect. The testing of the mentioned pharmacological characteristics follows according to the principles of measuring techniques known from the literature, which come into use in modified form (G. M. Drazen et al. G. Clin. Invest. 63 1 (1979); M. W. Schneider and G. M. Drazen Amer. Rev. Resp. Dis. 121 835 (1980); S. S. Yen and W. Kreutner, Agents Actions 10 274 (1980); S. S. Yen Prostaglandins 22, 183 (1981)).
The compounds of Formula I effect a significant restraint on arachidonic acid-induced bronchial constriction (1.5.10^-5 M arachidonic acid) in the guinea pig lung preparations (see, Example 6). Also with the addition of a cyclooxygenase inhibitor to the measuring system this effect was unaltered, and to some extent stronger, detectably. These experimental results permit without a doubt the conclusion that the compounds of Formula I involve inhibitors of the lipoxygerase pathway of arachidonic utilization, and the above described pharmacological effect is grounded upon this mechanism of activity.
(§1) The testing of the compounds for antiasthmatic activity follows on isolated lung strips and isolated tracheal rings from guinea pigs according to measuring methods known from the literature (supra) in modified form. The measurements follow in thermostatically controlled organ bath, isotonically using a contraction measuring arrangement with lift receiver, measuring coil, measuring amplifier (inductive measurement with the aid of a high frequency resonant circuit). The gasification follows with air. The suspension solution has the following composition: 39.46 g NaCl, 2.2 g KCl, 6.07 g Tris, 1.0 g CaCl2, 9.9 g glucose, 1.0 ml saturated MgCl2 -solution, 43 ml 1N HCl; pH 7.4.
(a) Activity on spasm of the guinea pig lung strips, induced by exogenous arachidonic acid.
The spasm is triggered by rising concentrations of arachidonic acid (concentrated solution in ethanol, stored in N2 -atmosphere) and is cumulatively measured. […] The active substance caused a highly significant displacement to the right of the Dose-Activity curves for arachidonic acid, visible by a clear elevation of the ED50 - and ED84 -values. The effect can be described through the following activity index: [formula] In an analogous manner, the index i84 is determined from the measured data.

[3] = tested on: guinea pig lung strips; assay: Activity on the basal tones of guinea pig lung strips; settings: Cavia porcellus, basal tone, cumulative dose-activity curve
Excerpt: as §1
(c) Activity on the basal tones of guinea pig lung strips.
Increasing concentrations of the active substance are added to the suspension medium. There occurs a dilatation, which is cumulatively measured. From the Dose-Activity-curves are provided the following parameters: […]

[4] = tested on: thrombocyte aggregation; assay: Arachidonic acid-induced thrombocyte aggregation in thrombocyte-rich plasma; type: cell-based, humans; settings: Homo sapiens; 0.8 mM arachidonic acid; concentration giving total restraint of aggregation
Excerpt: Since with the new medicines the restraints of lipoxygenase has been identified as a molecular type of attack, also their influence on the thrombocyte-aggregation has been tested. The essential role of the lipoxygenase pathway for irreversibility of the thrombocyte aggregation is now known. (C. E. Dutilh et al. Prostaglandins and Medicine 6, 111 (1981)). The key role is attributed to the irreversibility of the thrombocyte aggregation in the pathogenesis of thrombotic illnesses. […] In the experiments, the thrombocyte aggregation was triggered either by means of arachidonic acid or by means of platelet activation factor (PAF-Acether).
The testing of the compounds for antithrombotic and thrombolytic activity follows in authentic cell systems of humans in vitro. Thrombocyte-rich plasma from the blood of healthy donors is obtained by centrifugation at 1,000×g. The measurement of the thrombocyte aggregation follows by means of an aggregometer based upon diffuse light scattering or light absorption of the produced cell aggregate. The thrombocyte-rich plasma is pre-incubated at 37° C. for 3 minutes with the active substance or substances; thereafter the thrombocyte aggregation is triggered through the addition of either 0.8 mM arachidonic acid or 1 μM platelet activation factor (PAF-acether). The preparations are then stirred with a velocity of 800 rpm. Indeed according to the employed active substance concentration there occurs either a strong delay or a complete inhibition of the thrombocyte aggregation.

[5] = tested on: guinea pig trachia; assay: Carbachol-induced spasm of guinea pig trachea; settings: Cavia porcellus; spasm triggered by 3.9 μM carbachol; read-out: active substance concentration at which strong to very strong dilatation was clearly determinable
Excerpt: as §1
(b) Activity on the carbachol-induced spasm of guinea pig trachia
The spasms are triggered by 3.9 μM carbachol.

[6] = 25° C., pH 7.4, 0.53 mM linoleic acid, 15 min pre-incubation, read-out: I50
[7] = 25° C., pH 7.4, 0.53 mM linoleic acid, 15 min pre-incubation

| SMILES | IC50 [1, 6] [µM] | IC84 [1, 7] [µM] | also measured |
| --- | --- | --- | --- |
| O=C(NO)c1ccc2ccccc2c1O [1-hydroxy-2-naphthylhydroxamic acid] | 47 | 500 |  |
| CCC(Oc1cccc2ccccc12)C(=O)NO (centres unmarked) [2(1'-naphthoxy)-2-ethyl-acethydroxamic acid] | 42 | 130 |  |
| O=C(COc1cccc2ccccc12)NO [2(1'-naphthoxy)-acethydroxamic acid] | 25 | 60 |  |
| CC(C)C(Oc1ccc2ccccc2c1)C(=O)NO (centres unmarked) [2(2'-naphthoxy)-2-i-propyl-acethydroxamic acid] | 27 |  |  |
| CCCCCCCCCC(Oc1ccc2ccccc2c1)C(=O)NO (centres unmarked) [2(2'-naphthoxy)-2-n-nonyl-acethydroxamic acid] | 1.5 | 4.8 |  |
| CCCCCCCCC(Oc1ccc2ccccc2c1)C(=O)NO (centres unmarked) [2(2'-naphthoxy)-2-n-octyl-acethydroxamic acid] | 2.3 | 7 |  |
| COc1ccc(O)c(C(C)(C)C)c1 [3-tert.-butyl-4-hydroxy-anisol, reference compound] |  |  | activity index i50 (displacement of arachidonic acid ED50) [2]: 4.6; activity index i84 (displacement of arachidonic acid ED84) [2]: 3.6; IC50 [1]: 160 µM; EC50 ([3]; read-out: ED50 (dilatation)): 61 µM; EC84 ([3]; read-out: ED84 (dilatation)): 130 µM |
| O=[N+]([O-])c1ccc(O)c(O)c1 [4-nitrocatechol, reference compound] | 4.6 | 16 | IC100 [4]: 60 µM |
| CCCCCCCCC#CCC#CCC#CCCCC(=O)O [5,8,11-eicosatriicacid, reference compound] | 1.3 |  |  |
| NC1=NN(c2cccc(C(F)(F)F)c2)CC1 [BW 755 C, 3-amino-N-(3-trifluoromethylphenyl)-pyrazoline-(2), reference compound] | 20 |  |  |
| CC(Cc1ccc(O)c(O)c1)C(C)Cc1ccc(O)c(O)c1 (centres unmarked) [nordihydroguaiaretic acid, reference compound] |  |  | minimal effective concentration [5]: 50 µM |

The next lines start with results.

| IC50 [1, 6] [µM] | IC84 [1, 7] [µM] | SMILES | also measured |
| --- | --- | --- | --- |
| 32 |  | CCC(Oc1ccc2ccccc2c1)C(=O)NO (centres unmarked) [2(2'-naphthoxy)-2-ethyl-acethydroxamic acid] |  |
| 40 | 120 | CC(Oc1ccc2ccccc2c1)C(=O)NO (centres unmarked) [2(2'-naphthoxy)-2-methyl-acethydroxamic acid] |  |
| 19 |  | CCCCC(Oc1ccc2ccccc2c1)C(=O)NO (centres unmarked) [2(2'-naphthoxy)-2-n-butyl-acethydroxamic acid] |  |
| 24 |  | CCCC(Oc1ccc2ccccc2c1)C(=O)NO (centres unmarked) [2(2'-naphthoxy)-2-n-propyl-acethydroxamic acid] |  |
| 7 | 15 | O=C(CCOc1ccc2ccccc2c1)NO [3(2'-naphthoxy)-n-propylhydroxamic acid, 3(2'-naphthoxy)-propylhydroxamic acid] |  |
| 4 | 7.5 | O=C(CCCOc1ccc2ccccc2c1)NO [4(2'-naphthoxy)-n-butyl-hydroxamic acid, 4(2'-naphthoxy)-butylhydroxamic acid] |  |
| 3.5 | 6.4 | O=C(CCCCOc1ccc2ccccc2c1)NO [5(2'-naphthoxy)valerylhydroxamic acid, 5(2'-naphthoxy)-valerylhydroxamic acid] |  |
| 2.1 | 4.6 | O=C(CCCCCCCOc1ccc2ccccc2c1)NO [8(2'-naphthoxy)-octylhydroxamic acid] |  |

Source: patent US4670469A, “Hydroxamic acid and pharmaceutical preparations containing the same” (VEB Arzneimittelwerk Dresden, priority 1983, dated 1987)
